Measured values: patent publication US10077246B2, “Tricyclic prodrugs” (Glactone Pharma Development AB, priority 2014, dated 2018)

How the values were obtained:
[1] = Pharmacokinetic (PK) study in mice, oral dosing, galiellalactone quantified in plasma; assay type: in vivo; settings: for AUC 0-t / AUC 0-∞ / plasma exposure of galiellalactone compared to oral administration of galiellalactone itself (in words): oral 10 mg/kg; for AUC 0-t / AUC 0-∞: galiellalactone (GL) in plasma; for AUC 0-t: 0 minutes to last quantifiable data point; for AUC 0-∞: extrapolated to infinity
Protocol: The usefulness of the compounds, as defined in the embodiments herein, as prodrugs to enhance the plasma exposure of tricyclic compounds that may be used treating, revoking, mitigating, alleviating and/or preventing different forms of cancer, were evaluated in an in vivo pharmacokinetic (PK) study in mice.
Doses of the test items were prepared at a drug concentration of 0.5 mg/mL in 5% DMSO in 50 mM citrate buffer (citric acid/sodium citrate), pH 4.0.
Oral doses were administered in a volume of 20 mL/kg (10 mg/kg) to groups of 24 mice and blood samples taken, under terminal barbiturate anaesthesia, at eight time-points out to 8 hours post-dose (n=3 mice per time-point).
Blood samples were transferred to tubes containing EDTA as anticoagulant and, as soon as practicable after collection, samples were centrifuged to yield plasma which was immediately frozen awaiting analysis. Following blood collection, brains were removed from all animals for possible future analysis and immediately frozen by immersion in liquid nitrogen. All samples were analyzed using LC-MS/MS.
Plasma proteins were precipitated and compounds extracted by the addition of three volumes of acetonitrile containing analytical internal standard (reserpine). Samples were centrifuged for 30 minutes at 3452 g in a Sorvall bench centrifuge and the supernatant fractions removed for MS analysis.
Quantification of the active compound e.g. galiellalactone, was by extrapolation from calibration lines prepared in control mouse plasma and analyzed concurrently with experimental samples and Quality Control (QC) samples prepared in control mouse plasma. If the compounds were instable in mouse plasma, calibration lines were constructed in water for qualitative MS comparison with any signal seen in plasma samples.
Pharmacokinetic parameters of the test items were determined using the mean data from the n=3 mice at each time-point. Non-compartmental analysis was performed using the software package PK Solutions 2.0 from Summit Research Services. AUC values were calculated by the trapezoidal method.
AUC 0-t: Area under the plasma drug concentration/time curve from 0 minutes to last quantifiable data point
AUC 0-∞: Area under the curve from 0 minutes extrapolated to infinity

[2] = Chemical stability in phosphate buffered saline; assay type: physicochemical; settings: for chemical stability in 0.1 M PBS (in words): 0.1 M PBS (pH 7.4); for half-life at 10 μM: 0.1 M phosphate buffered saline, 0.1 M PBS pH 7.4, 10 μM, room temperature
Protocol: The chemical stability of test compounds was determined in 96-well plate format. Compounds in DMSO stock solutions were diluted (n=2) in the required matrix (0.1 M phosphate buffered saline) to a concentration of 10 μM (2% DMSO final) and mixed at room temperature on an orbital shaker, with aliquots removed at 2 and 4 hours for testing. DMSO, containing an analytical internal standard, was added to the aliquots, vortex-mixed and analysed immediately by LC-MS/MS. Equivalent T=0 samples were also included, with sample preparation staggered to allow sequential injections of timed aliquots and the T=0 samples.
The amount of compound remaining (expressed as %) was determined from the MS response in each sample relative to that in the T=0 samples (normalized for internal standard).
Ln plots of the % remaining were used to determine the half-life of compound disappearance from the relationship:
t1/2 (min)=−0.693/λ, where λ is the slope of the Ln concentration vs time curve.

DU145 = test: WST-1 cell proliferation assay, DU145; assay type: cell-based; settings: DU145 (pSTAT3 +), 72 hours/10 μM, percent of untreated control cells
Protocol: (§1) The functional activity of example 15 in comparison to galiellalactone was evaluated using WST-1 proliferation assay (J. Biol. Chem. 2014, 289:15969-15978) on DU145, PC-3, LNCaP or IL-6 stimulated LNCaP. The cells were cultured in 96-well plates (2000 cells/well in 200 μl of medium) and allowed to set for 24 h. The cells were treated with 10 μM of 4α-fluoro-galiellalactone or galiellalactone for 72 h. Samples were made in triplicate. 20 μl WST-1 solution (Roche Applied Science) was added per well and incubated at 37° C. for 4 h. The absorbance of each well was measured using a scanning multi-well spectrophotometer, ELISA reader at a wavelength of 450 nm and reference wavelength of 690 nm. The results presented in Table 3 below are presented as percent of untreated control cells.

IL-6 stimulated LNCaP = test: WST-1 cell proliferation assay, IL-6 stimulated LNCaP; assay type: cell-based; settings: LNCaP-IL6 (pSTAT3 +), 72 hours/10 μM, percent of untreated control cells
Protocol: as §1

PC-3 = test: WST-1 cell proliferation assay, PC-3; assay type: cell-based; settings: PC3 (pSTAT3 −), 72 hours/10 μM, percent of untreated control cells
Protocol: as §1

STAT3 = test: WST-1 proliferation, pSTAT3 negative versus pSTAT3 positive cell lines; assay type: cell-based; settings: 10 μM; pSTAT3 negative PC3, LNCaP versus pSTAT3 positive cells
Protocol: as §1
On the other hand, the pSTAT3 positive cells are equally sensitive to 4α-fluoro-galiellalactone and galiellalactone.

LNCaP = test: WST-1 cell proliferation assay, LNCaP; assay type: cell-based; settings: LNCaP (pSTAT3 −), 72 hours/10 μM, percent of untreated control cells
Protocol: as §1

IL-6/STAT3 signaling = settings: cited from earlier work
[3] = test system: STAT3 expressing DU145 prostate cancer cells; settings: Prostate 68:269-280 (2008); cited from earlier work

AUC 0-t [1] [μg GL/mL•min]	AUC 0-∞ [1] [μg GL/mL•min]	half-life at 10 μM [2] [h]	Structure (SMILES)	further results
85	102		CCCCS[C@H]1C2C(=O)O[C@@H]3CC[C@H](C[C@@H]1C)[C@]23O (stereo partly drawn) [Example 1, 3β-(Butyllthio)-2aβ,3-dihydrogaliellalactone]	
36	41		C[C@H]1C[C@H]2CC[C@H]3OC(=O)C([C@@H]1Sc1ccccc1)[C@@]23O (stereo partly drawn) [Example 2, 3β-(Phenylthio)-2aβ,3-dihydrogaliellalactone]	
117	120	> 2.5	COC(=O)[C@H](CS[C@H]1C2C(=O)O[C@@H]3CC[C@H](C[C@@H]1C)[C@]23O)NC(C)=O (stereo partly drawn) [Example 3, 3β-(N-acetyl L-cysteinemethyl ester)-2aβ,3-dihydrogaliellalactone]	plasma exposure of galiellalactone compared to oral administration of galiellalactone itself (in words) [1]: significantly improve; chemical stability in 0.1 M PBS (in words) [2]: chemically stable
20	22		CCOC(=O)[C@H](CS[C@H]1C2C(=O)O[C@@H]3CC[C@H](C[C@@H]1C)[C@]23O)NC(C)=O (stereo partly drawn) [Example 4, 3β-(N-acetyl L-cysteineethyl ester)-2aβ,3-dihydrogaliellalactone]	
15	21	> 2.3	COC(=O)[C@H](CS[C@H]1C2C(=O)O[C@@H]3CC[C@H](C[C@@H]1C)[C@]23O)NC(=O)C(C)C (stereo partly drawn) [Example 5]	
11	17	> 2.5	COC(=O)[C@H](CS[C@H]1C2C(=O)O[C@@H]3CC[C@H](C[C@@H]1C)[C@]23O)NC(=O)OC(C)(C)C (stereo partly drawn) [Example 6, 3β-(N-(tert-butylcarbonate)-L-cysteinemethyl ester)-2aβ,3-dihydrogaliellalactone]	
		> 2.5	CC(=O)N[C@@H](CS[C@H]1C2C(=O)O[C@@H]3CC[C@H](C[C@@H]1C)[C@]23O)C(N)=O (stereo partly drawn) [Example 7, 3β-(N-acetyl L-cysteine amide)-2aβ,3-dihydrogaliellalactone]	
		> 2.5	C[C@H]1C[C@H]2CC[C@H]3OC(=O)C([C@@H]1SCCS(=O)(=O)[O-])[C@@]23O.[Na+] (stereo partly drawn) [Example 8, 3β-(ethyl sulphonate)-2aβ,3-dihydrogaliellalactone sodium]	
		> 2.5	C[C@H]1C[C@H]2CC[C@H]3OC(=O)C([C@@H]1SCC(NC(=O)CCC(N)C(=O)O)C(=O)NCC(=O)O)[C@@]23O (stereo partly drawn) [Example 9, 3β-(glutathione)-2aβ,3-dihydrogaliellalactone]	
150	155		COC(=O)[C@H](CCS[C@H]1C2C(=O)O[C@@H]3CC[C@H](C[C@@H]1C)[C@]23O)NC(C)=O (stereo partly drawn) [Example 12, 3β-(N-acetyl-L-homocysteinemethyl ester)-2aβ,3-dihydrogaliellalactone]	
7.8	11		COC(=O)[C@H](CS[C@H]1C2C(=O)O[C@@H]3CC[C@H](C[C@@H]1C)[C@]23O)NC(=O)c1ccccc1F (stereo partly drawn) [Example 13, 3β-(N-(2-fluorobenzoyl)-L-cysteinemethyl ester)-2aβ,3-dihydrogaliellalactone]	
97	101		COC(=O)[C@H](CS[C@H]1C2C(=O)O[C@@H]3CC[C@H](C[C@@H]1C)[C@]23O)NC(=O)[C@@H](N)C(C)C (stereo partly drawn) [Example 14, 3β-(N-(L-valine)-L-cysteinemethyl ester)-2aβ,3-dihydrogaliellalactone]	chemical stability in 0.1 M PBS (in words) [2]: chemically stable
			C[C@@]1(F)C=C2C(=O)O[C@@H]3CC[C@H](C1)[C@]23O [Example 15, 4α-fluoro-galiellalactone]	% Remaining Proliferation (DU145): 16%; % Remaining Proliferation (IL-6 stimulated LNCaP): 20%; % Remaining Proliferation (PC-3): 68%; selectivity for STAT3 compared with galiellalactone (in words) (STAT3): significantly more selective; % Remaining Proliferation (LNCaP): 105%
5	6		C[C@@H]1C=C2C(=O)O[C@@H]3CC[C@H](C1)[C@]23O [Galiellalactone, (−)-Galiellalactone, reference compound]	% Remaining Proliferation (DU145): 18%; % Remaining Proliferation (IL-6 stimulated LNCaP): 17%; % Remaining Proliferation (PC-3): 31%; AUC(0-inf) ([1]; mouse, oral administration 10 mg/kg, plasma galiellalactone): 95 ng·h/mL; inhibition of IL-6/STAT3 signaling (IL-6/STAT3 signaling): submicromolar; proliferation of DU145 prostate cancer cells (in words) [3]: inhibits the proliferation; % Remaining Proliferation (LNCaP): 77%
2.2	2.5		C[C@H]1C[C@H]2CC[C@H]3OC(=O)C([C@@H]1N1CCCC1)[C@@]23O.Cl (stereo partly drawn) [drawing 42, 3β-(N-pyrrolidine)-2aβ,3-dihydrogaliellalactone, reference compound]	plasma exposure of galiellalactone compared to oral administration of galiellalactone itself (in words) [1]: do not increase the AUC; chemical stability in 0.1 M PBS (in words) [2]: very unstable
		0.3	C[C@H]1C[C@H]2CC[C@H]3OC(=O)C([C@@H]1N1CCCC1)[C@@]23O.Cl (stereo partly drawn) [drawing 45, reference compound]	
		0.367	COC(=O)C(N)CS[C@H]1C2C(=O)O[C@@H]3CC[C@H](C[C@@H]1C)[C@]23O (stereo partly drawn) [reference compound]	
		0.233	C[C@H]1C[C@H]2CC[C@H]3OC(=O)C([C@@H]1SCC(N)C(=O)O)[C@@]23O (stereo partly drawn) [reference compound]	
